What was measured:
[1] = Magnetic resonance relaxivity (R1, R2) of paramagnetic polymerized liposomes; assay type: physicochemical
From the text: We have constructed paramagnetic polymerized liposomes using the above techniques with 2.5 to 100 mol % of the gadolinium chelated diamide shown in FIG. 4, with the polyethylene glycol linker m=1 and m=2, and sizes ranging from 30 nm to 200 nm in diameter. We have determined the maximum T1 relaxivity, showing the best contrast, is obtained with 15% gadolinium chelated diamide and 85% DAPC with m=2 and having 200 nm particle size. High relaxivity is also observed with 30% gadolinium chelated diamide and 70% PDA with m=1 and having a variable particle size of about 10 to about 200 nm.
Similar measurements were made using PDA liposomes as the matrix lipid and the gadolinium chelated diamide (m=1).

[2] = rat, in vivo; cited from earlier work

- molar relaxivity per Gd^+3 ion [1]: 4.2 mM⁻¹ s⁻¹
- R1 ([1]; DAPC matrix lipid, gadolinium-diamide %, linker m and size as in label): 4.4 s⁻¹ mM⁻¹
Compound: O=C([O-])CN(CCN(CC(=O)[O-])CC(=O)O)CCN(CC(=O)[O-])CC(=O)O.[Gd+3] [Gd (DTPA), gadolinium diethylenetriaminepentaacetic acid]
- elimination from the blood pool [2]: within a few minutes
